Results taken from US20080108085A1 (priority 2001, published 2008).
Where two headings read alike, the source gives them in different places.

Test system: surface-bound mouse prions (RML)
Settings: for Incubation time s.d. / Sick/total: Table 4, infectious wires treated: sodium hydroxide 1M 1 h, formaldehyde 10% 1 h, guanidinium thiocyanate 4M 16 h, 25° C.; for Infectivity of treated prion-coated wires: sodium hydroxide 1 M 1 h, guanidinium thiocyanate 4 M 16 h, formaldehyde 10%

Row | SMILES | Incubation time s.d. [days] | Sick/total | Infectivity of treated prion-coated wires | Incubation time s.d. (listed as formaldehyde) [days]
1 | N#CS.N=C(N)N [Guanidinium thiocyanate] | >260 | 0/6 | completely non-infectious | –
2 | [Na+].[OH-] [Sodium hydroxide] | >260 | 0/6 | completely non-infectious | –
3 | C=O [Formaldehyde] | 92 ± 8 | 6/6 | – | 92 ± 8
